Results taken from patent US20140303092A1 (CHIMERIX, INC., priority 2011, published 2014).

Experiment: Study HDP-CDV-201: safety and tolerability (adverse events, laboratory abnormalities, discontinuations)
Assay type: in vivo, human (adult allogeneic HSCT recipients)
Experimental: Clinical Studies of HDP-CDV were performed and described in detail in the following Examples. For example, HDP-CDV-201 is a placebo-controlled, dose-escalating trial in HSCT CMV (R+) recipients, evaluating the ability of HDP-CDV to prevent or control CMV infection was carried out. Five cohorts were established in which participants or subjects received either placebo or the HDP-CDV orally, in doses ranging from 40 mg weekly (QW) to 200 mg twice weekly (BIW). Subjects who were post-HSCT were enrolled at the time of engraftment and randomized to HDP-CDV or placebo (3 to 1 ratio) and received blinded therapy until approximately 100 day post-transplantation. HDP-CDV doses were 40 mg QW, 100 mg QW, 200 mg QW, 200 mg BIW and 100 mg BIW. Escalation to the next dose was decided by the data monitoring committee after review of the safety data from the previous Cohort. Subjects who developed CMV disease or CMV infection requiring pre-emptive therapy with local standard of care were discontinued from blinded therapy and followed for 4 weeks. Subjects who completed treatment with blinded therapy were followed for 8 weeks post-therapy.
Data from Study HDP-CDV-201 also provided characterization of the safety and tolerability profile of HDP-CDV when administered for the prevention or control of CMV infection in high risk (R^+) post-HSCT adult subjects.
The Safety population (SAFETY) included all randomized subjects who took at least one dose of study treatment. This population was used to summarize safety outcomes based on the treatment actually received, in cases where a subject was treated contrary to the randomization schedule.
The safety and tolerability profile of HDP-CDV, including subject demographics and Baseline characteristics; the AE profile; and laboratory abnormalities of interest were analyzed in the cohorts followed in this investigation.
Subjects completing the treatment period received a full course of study medication; those completing the entire study attended visits through 8 weeks of follow up. Subjects who discontinued treatment may have done so for protocol specified reasons (e.g. development of clinically significant CMV infection requiring preemptive treatment with excluded anti-CMV medications) or for other reasons (e.g., withdrawal, adverse events, loss to follow-up). The disposition of subjects in Study HDP-CDV-201 during the double-blind, placebo-controlled treatment period (through Week 11) is listed by dosing Cohort in TABLE 23.
Adverse events were examined by severity to ensure that all safety signals were identified in this study population. Because of the frequency of events in HSCT recipients, particular attention was given to evaluation of Grade 3 […], 4 (severe), and 5 (fatal) adverse events.
Only those preferred terms for which at least one Grade 3 or higher event was experienced in any treatment group are listed. Cytomegalovirus-related AEs are excluded from this analysis.
HDP-CDV is a lipid conjugate of CDV. Because CDV is known to have adverse effects on renal function and bone marrow, decreased GFR and persistent neutropenia were identified as AEs of special interest. Key renal and hematological (TABLE 30) laboratory parameters were measured and listed below by Study HDP-CDV-201 treatment groups. TABLE 30 includes abnormal levels of serum creatinine, neutrophils, platelets, WBCs, and hemoglobin and includes data at Screening and during the treatment period.
A common metric for unit based dosing of medications is by weight (mg/kg). When the distribution of weights was examined for all subjects participating in the study, the median was 78 kg and the lower 25th percentile weight was approximately 65 kg, which translates to a cut-off of ˜3 mg/kg for a 200 mg total weekly dose. Based upon this approach, a cut-off of 3 mg/kg was used to assess the frequency of diarrhea and associated GI AEs reported for the subjects in Cohorts 3 or 4a (TABLE 40).

[1] = Cohort 2, 100 mg QW, through Week 11

CCCCCCCCCCCCCCCCOCCCOP(=O)(O)COC(CO)Cn1ccc(N)nc1=O (stereo not drawn) [HDP-CDV]
Alkaline Phosphatase (Screening) >2.5-5.0 × ULN, subjects (Cohort 2, 100 mg QW): 0
Alkaline Phosphatase (Screening) >5.0-20.0 × ULN, subjects (Cohort 2, 100 mg QW): 0
Alkaline Phosphatase (Screening) >20.0 × ULN, subjects (Cohort 2, 100 mg QW): 0
Alkaline Phosphatase (Screening) >ULN-[…] ULN, subjects (Cohort 2, 100 mg QW): 6 (22.2%)
Alkaline Phosphatase (any time during therapy) >2.5-5.0 × ULN, subjects (Cohort 2, 100 mg QW): 1 (3.7%)
Alkaline Phosphatase (any time during therapy) >5.0-20.0 × ULN, subjects (Cohort 2, 100 mg QW): 1 (3.7%)
Alkaline Phosphatase (any time during therapy) >20.0 × ULN, subjects (Cohort 2, 100 mg QW): 0
Alkaline Phosphatase (any time during therapy) >ULN-[…] ULN, subjects (Cohort 2, 100 mg QW): 7 (25.9%)
GI AE Leading to Study Drug Discontinuation: Abdominal pain, subjects (Cohort 2, 100 mg QW): 0
GI AE Leading to Study Drug Discontinuation: Diarrhoea, subjects (Cohort 2, 100 mg QW): 0
GI AE Leading to Study Drug Discontinuation: Dyspepsia, subjects (Cohort 2, 100 mg QW): 0
GI AE Leading to Study Drug Discontinuation: Nausea, subjects (Cohort 2, 100 mg QW): 0
GI AE Leading to Study Drug Discontinuation: Vomiting, subjects (Cohort 2, 100 mg QW): 1 (3.7%)
GI AEs Leading to Study Drug Discontinuation: Total subjects discontinued (Cohort 2, 100 mg QW): 1 (3.7%)
Gastrointestinal AE Abdominal discomfort, subjects (Cohort 2, 100 mg QW): 1 (3.7%)
Gastrointestinal AE Abdominal distention, subjects (Cohort 2, 100 mg QW): 2 (7.4%)
Gastrointestinal AE Abdominal pain upper, subjects (Cohort 2, 100 mg QW): 2 (7.4%)
Gastrointestinal AE Abdominal pain, subjects (Cohort 2, 100 mg QW): 2 (7.4%)
Gastrointestinal AE Constipation, subjects (Cohort 2, 100 mg QW): 0
Gastrointestinal AE Diarrhoea, subjects (Cohort 2, 100 mg QW): 8 (29.6%)
Gastrointestinal AE Diverticulum intestinal haemorragic, subjects (Cohort 2, 100 mg QW): 0
Gastrointestinal AE Dyspepsia, subjects (Cohort 2, 100 mg QW): 2 (7.4%)
Gastrointestinal AE Dysphagia, subjects (Cohort 2, 100 mg QW): 1 (3.7%)
Gastrointestinal AE Epigastric discomfort, subjects (Cohort 2, 100 mg QW): 1 (3.7%)
Gastrointestinal AE Flatulence, subjects (Cohort 2, 100 mg QW): 1 (3.7%)
Gastrointestinal AE GERD, subjects (Cohort 2, 100 mg QW): 4 (14.8%)
Gastrointestinal AE Gastritis, subjects (Cohort 2, 100 mg QW): 1 (3.7%)
Gastrointestinal AE Haematochezia, subjects (Cohort 2, 100 mg QW): 0
Gastrointestinal AE Haemorroids, subjects (Cohort 2, 100 mg QW): 0
Gastrointestinal AE Large intestinal ulcer, subjects (Cohort 2, 100 mg QW): 0
Gastrointestinal AE Nausea, subjects (Cohort 2, 100 mg QW): 5 (18.5%)
Gastrointestinal AE Odynophagia, subjects (Cohort 2, 100 mg QW): 0
Gastrointestinal AE Oesophagitis, subjects (Cohort 2, 100 mg QW): 0
Gastrointestinal AE Retching, subjects (Cohort 2, 100 mg QW): 1 (3.7%)
Gastrointestinal AE Vomiting, subjects (Cohort 2, 100 mg QW): 6 (22.2%)
Hepatobiliary clinical AE Cholelithiasis, subjects (Cohort 2, 100 mg QW): 0
Hepatobiliary clinical AE Hepatomegaly, subjects (Cohort 2, 100 mg QW): 0
Hepatobiliary clinical AE Hyperbilirubinaemia, subjects (Cohort 2, 100 mg QW): 0
Hepatobiliary clinical AE Jaundice, subjects (Cohort 2, 100 mg QW): 0
Hepatobiliary clinical AE Liver injury, subjects (Cohort 2, 100 mg QW): 0
Intensity of Gastrointestinal AEs, Grade 1, subjects (Cohort 2, 100 mg QW): 6 (22.2%)
Intensity of Gastrointestinal AEs, Grade 2, subjects (Cohort 2, 100 mg QW): 10 (37.0%)
Intensity of Gastrointestinal AEs, Grade 3, subjects (Cohort 2, 100 mg QW): 1 (3.7%)
Intensity of Gastrointestinal AEs, Grade 4, subjects (Cohort 2, 100 mg QW): 0
Intensity of Gastrointestinal AEs, Grade 5, subjects (Cohort 2, 100 mg QW): 0
Proportion of Subjects with Stage 3 or 4 Gut GVHD (Cohort 2, 100 mg QW): 0%
Serum ALT level, Median fold increase from Baseline at Follow-up Week 1 (Cohort 2, 100 mg QW): 1.50 fold
Serum ALT level, Median fold increase from Baseline at Follow-up Week 4 (Cohort 2, 100 mg QW): 0.96 fold
Serum ALT level, Peak Median fold increase from Baseline (Cohort 2, 100 mg QW): 1.53 fold
Subjects completed study (Cohort 2, 100 mg QW): 14 (51.9%) n (%)
Total Bilirubin (Screening) >1-[…] ULN, subjects (Cohort 2, 100 mg QW): 1 (3.8%)
Total Bilirubin (Screening) >1.5-3 × ULN, subjects (Cohort 2, 100 mg QW): 1 (3.8%)
Total Bilirubin (Screening) >3-10 × ULN, subjects (Cohort 2, 100 mg QW): 0
Total Bilirubin (Screening) >10 × ULN, subjects (Cohort 2, 100 mg QW): 0
Total Bilirubin (any time during therapy) >1-[…] ULN, subjects (Cohort 2, 100 mg QW): 0
Total Bilirubin (any time during therapy) >1.5-3 × ULN, subjects (Cohort 2, 100 mg QW): 1 (3.7%)
Total Bilirubin (any time during therapy) >3-10 × ULN, subjects (Cohort 2, 100 mg QW): 0
Total Bilirubin (any time during therapy) >10 × ULN, subjects (Cohort 2, 100 mg QW): 0
Abdominal pain leading to study drug withdrawal (Cohort 2, 100 mg QW, N = 27): 0%
All AEs leading to withdrawal (Cohort 2, 100 mg QW, N = 27): 9 (33.3%)
Diarrhoea leading to study drug withdrawal (Cohort 2, 100 mg QW, N = 27): 0%
Dyspepsia leading to study drug withdrawal (Cohort 2, 100 mg QW, N = 27): 0%
Nausea leading to study drug withdrawal (Cohort 2, 100 mg QW, N = 27): 0%
TEAE ALT increased (Cohort 2, 100 mg QW, N = 27): 1 (3.7%) n (%)
TEAE AST increased (Cohort 2, 100 mg QW, N = 27): 1 (3.7%) n (%)
TEAE Abdominal pain (Cohort 2, 100 mg QW, N = 27): 2 (7.4%) n (%)
TEAE Abdominal pain, Upper (Cohort 2, 100 mg QW, N = 27): 2 (7.4%) n (%)
TEAE Acute GVHD (Cohort 2, 100 mg QW, N = 27): 7 (25.5%) n (%)
TEAE Acute Myeloid Leukemia recurrent (Cohort 2, 100 mg QW, N = 27): 0 n (%)
TEAE Acute Renal Failure (Cohort 2, 100 mg QW, N = 27): 0 n (%)
TEAE Anxiety (Cohort 2, 100 mg QW, N = 27): 3 (11.1%) n (%)
TEAE Arthralgias (Cohort 2, 100 mg QW, N = 27): 3 (11.1%) n (%)
TEAE Back Pain (Cohort 2, 100 mg QW, N = 27): 2 (7.4%) n (%)
TEAE Blood lactate dehydrogenase increased (Cohort 2, 100 mg QW, N = 27): 1 (3.7%) n (%)
TEAE Creatinine increased (Cohort 2, 100 mg QW, N = 27): 5 (18.5%) n (%)
TEAE Cytomegalovirus viremia (Cohort 2, 100 mg QW, N = 27): 4 (14.8%) n (%)
TEAE Decreased appetite (Cohort 2, 100 mg QW, N = 27): 5 (18.5%) n (%)
TEAE Diarrhoea (Cohort 2, 100 mg QW, N = 27): 8 (29.6%) n (%)
TEAE Dysgeusia (Cohort 2, 100 mg QW, N = 27): 1 (3.7%) n (%)
TEAE Fatigue (Cohort 2, 100 mg QW, N = 27): 3 (11.1%) n (%)
TEAE GI Reflux Disease (Cohort 2, 100 mg QW, N = 27): 4 (14.8%) n (%)
TEAE Gamma-glutamyltransferase increased (Cohort 2, 100 mg QW, N = 27): 1 (3.7%) n (%)
TEAE Generalized oedema (Cohort 2, 100 mg QW, N = 27): 0 n (%)
TEAE Hyperbilirubinaemia (Cohort 2, 100 mg QW, N = 27): 0 n (%)
TEAE Hyperglycaemia (Cohort 2, 100 mg QW, N = 27): 1 (3.7%) n (%)
TEAE Hyperkalemia (Cohort 2, 100 mg QW, N = 27): 1 (3.7%) n (%)
TEAE Hypocalcaemia (Cohort 2, 100 mg QW, N = 27): 0 n (%)
TEAE Hypokalaemia (Cohort 2, 100 mg QW, N = 27): 2 (7.4%) n (%)
TEAE Hyponatraemia (Cohort 2, 100 mg QW, N = 27): 1 (3.7%) n (%)
TEAE Increased leukocytosis (Cohort 2, 100 mg QW, N = 27): 0 n (%)
TEAE Insomnia (Cohort 2, 100 mg QW, N = 27): 2 (7.4%) n (%)
TEAE Liver function test abnormal (Cohort 2, 100 mg QW, N = 27): 1 (3.7%) n (%)
TEAE Malnutrition (Cohort 2, 100 mg QW, N = 27): 0 n (%)
TEAE Nausea (Cohort 2, 100 mg QW, N = 27): 5 (18.5%) n (%)
TEAE Neutropenia (Cohort 2, 100 mg QW, N = 27): 4 (14.8%) n (%)
TEAE Oedema peripheral (Cohort 2, 100 mg QW, N = 27): 5 (18.5%) n (%)
TEAE Oral Candidiasis (Cohort 2, 100 mg QW, N = 27): 0 n (%)
TEAE Pneumonia (Cohort 2, 100 mg QW, N = 27): 2 (7.4%) n (%)
TEAE Pyrexia (Cohort 2, 100 mg QW, N = 27): 1 (3.7%) n (%)
TEAE Recurrent flatulence (Cohort 2, 100 mg QW, N = 27): 1 (3.7%) n (%)
TEAE Renal Failure (Cohort 2, 100 mg QW, N = 27): 2 (7.4%) n (%)
TEAE Staphylococcal Bacteremia (Cohort 2, 100 mg QW, N = 27): 1 (3.7%) n (%)
TEAE Thrombocytopenia (Cohort 2, 100 mg QW, N = 27): 3 (11.1%) n (%)
TEAE Tremor (Cohort 2, 100 mg QW, N = 27): 3 (11.1%) n (%)
TEAE Vomiting (Cohort 2, 100 mg QW, N = 27): 6 (22.2%) n (%)
Vomiting leading to study drug withdrawal (Cohort 2, 100 mg QW, N = 27): 1 (3.7%)
All AEs, Grade 5 (deaths) (Cohort 2, 100 mg QW, N = 27, entire study duration): 0%
Proportion of Subjects with Grade 3 Diarrhea (Cohort 2, 100 mg QW, no Grade 4 or 5 diarrhea in any Cohort): 0%
Subjects completed treatment [1]: 18 (66.7%) n (%)
Subjects who permanently discontinued treatment [1]: 9 (33.3%) n (%)
Grade of hepatobiliary AE acute liver injury, subject 3007 (Cohort 3): 3
